ChEMBL document CHEMBL1128795, “N-(Quinuclidin-3-yl)-2-(1-methyl-1H-indol-3-yl)-2-oxo-acetamide: a high affinity 5-HT3 receptor partial agonist” (Bioorg Med Chem Lett, 1995)

Assays:
[1] = biological target: Beta-2 adrenergic receptor (Homo sapiens, UniProt P07550); experiment: Binding affinity against Beta-2 adrenergic receptor
Rattus norvegicus [2] = species on record: Rattus norvegicus; experiment: Tested for maximum response in depolarization of isolated rat vagus nerve measured at dose 1 uM; type: functional
[3] = biological target: T1, Alpha-1B adrenergic receptor (Homo sapiens, UniProt P35368); experiment: Binding affinity against Adrenogenic Alpha-1B receptor
T1 sequence (P35368 whole entry): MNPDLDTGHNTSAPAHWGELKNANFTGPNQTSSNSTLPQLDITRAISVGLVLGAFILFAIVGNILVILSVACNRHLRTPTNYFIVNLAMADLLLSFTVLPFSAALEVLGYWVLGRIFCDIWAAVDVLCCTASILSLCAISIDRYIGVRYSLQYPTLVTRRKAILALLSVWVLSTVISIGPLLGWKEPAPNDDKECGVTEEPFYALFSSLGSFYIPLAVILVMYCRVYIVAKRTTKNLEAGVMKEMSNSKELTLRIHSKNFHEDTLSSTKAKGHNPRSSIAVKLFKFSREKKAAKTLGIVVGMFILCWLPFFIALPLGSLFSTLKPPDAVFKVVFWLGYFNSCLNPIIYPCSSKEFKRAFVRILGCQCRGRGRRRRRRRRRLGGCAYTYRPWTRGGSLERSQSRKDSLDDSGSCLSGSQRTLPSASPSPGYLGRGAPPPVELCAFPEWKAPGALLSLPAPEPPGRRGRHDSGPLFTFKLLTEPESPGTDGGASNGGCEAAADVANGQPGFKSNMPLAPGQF

[4] = biological target: 5-hydroxytryptamine receptor 1D (Homo sapiens, UniProt P28221); experiment: Binding affinity against 5-Hydroxytryptamine 1D receptor
[5] = biological target: T2, 5-hydroxytryptamine receptor 4 (Homo sapiens, UniProt Q13639); experiment: Binding affinity against 5-hydroxytryptamine 4 receptor
[6] = biological target: T3, Serotonin 3 (5-HT3) receptor (Rattus norvegicus) (UniProt P35563+Q9JJ16); experiment: Tested for % decrease in heart rate relative to pre-dose control against 2-methyl-5-HT induced bradycardia (von Bezold-Jarisch (B-J) reflex) in anesthetized rats; type: functional; set-up: scale not given: the % may be the effect or the level left
[7] = biological target: T4, Muscarinic acetylcholine receptor M2 (Homo sapiens, UniProt P08172); experiment: Binding affinity against Muscarinic M2 receptor
T4 sequence (P08172 whole entry): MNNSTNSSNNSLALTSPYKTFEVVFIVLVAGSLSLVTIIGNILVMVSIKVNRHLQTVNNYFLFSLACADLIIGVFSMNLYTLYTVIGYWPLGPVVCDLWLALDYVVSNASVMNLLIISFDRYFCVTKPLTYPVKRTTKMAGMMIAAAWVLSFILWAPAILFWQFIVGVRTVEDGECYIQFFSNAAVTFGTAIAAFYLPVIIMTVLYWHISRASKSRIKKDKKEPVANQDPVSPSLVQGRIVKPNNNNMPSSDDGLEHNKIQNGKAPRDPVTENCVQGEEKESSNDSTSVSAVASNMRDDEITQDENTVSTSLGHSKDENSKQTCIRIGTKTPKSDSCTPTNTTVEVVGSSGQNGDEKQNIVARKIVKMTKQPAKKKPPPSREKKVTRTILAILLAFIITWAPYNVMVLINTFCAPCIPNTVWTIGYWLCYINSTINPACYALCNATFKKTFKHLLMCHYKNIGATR

D(1A) dopamine receptor = D(1A) dopamine receptor (Homo sapiens, UniProt P21728); experiment: Binding affinity against Dopamine D1 receptor
[8] = biological target: Muscarinic acetylcholine receptor M3 (Homo sapiens, UniProt P20309); experiment: Binding affinity against Muscarinic M3 receptor
[9] = biological target: T5, Muscarinic acetylcholine receptor M4 (Homo sapiens, UniProt P08173); experiment: Binding affinity against Muscarinic acetylcholine receptor M4
T5 sequence (P08173 whole entry): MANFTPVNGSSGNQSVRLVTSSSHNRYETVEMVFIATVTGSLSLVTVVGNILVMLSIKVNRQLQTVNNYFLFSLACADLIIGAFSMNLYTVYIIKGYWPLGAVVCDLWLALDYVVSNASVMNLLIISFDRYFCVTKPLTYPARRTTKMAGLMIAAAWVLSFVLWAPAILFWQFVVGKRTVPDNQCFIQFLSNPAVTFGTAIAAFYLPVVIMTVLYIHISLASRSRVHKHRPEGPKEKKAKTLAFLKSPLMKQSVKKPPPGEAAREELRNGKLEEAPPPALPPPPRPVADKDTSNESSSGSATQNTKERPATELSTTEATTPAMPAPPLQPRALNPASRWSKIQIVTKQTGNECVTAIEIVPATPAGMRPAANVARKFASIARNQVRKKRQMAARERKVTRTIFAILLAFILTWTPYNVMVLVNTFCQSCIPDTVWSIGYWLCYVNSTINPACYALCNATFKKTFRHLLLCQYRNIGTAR

[10] = biological target: T6, Serotonin 3 (5-HT3) receptor (Rattus norvegicus, UniProt P35563+Q9JJ16); experiment: Binding affinity against 5-Hydroxytryptamine 3 receptor; type: protein-complex assay
T6 sequence (P35563 whole entry): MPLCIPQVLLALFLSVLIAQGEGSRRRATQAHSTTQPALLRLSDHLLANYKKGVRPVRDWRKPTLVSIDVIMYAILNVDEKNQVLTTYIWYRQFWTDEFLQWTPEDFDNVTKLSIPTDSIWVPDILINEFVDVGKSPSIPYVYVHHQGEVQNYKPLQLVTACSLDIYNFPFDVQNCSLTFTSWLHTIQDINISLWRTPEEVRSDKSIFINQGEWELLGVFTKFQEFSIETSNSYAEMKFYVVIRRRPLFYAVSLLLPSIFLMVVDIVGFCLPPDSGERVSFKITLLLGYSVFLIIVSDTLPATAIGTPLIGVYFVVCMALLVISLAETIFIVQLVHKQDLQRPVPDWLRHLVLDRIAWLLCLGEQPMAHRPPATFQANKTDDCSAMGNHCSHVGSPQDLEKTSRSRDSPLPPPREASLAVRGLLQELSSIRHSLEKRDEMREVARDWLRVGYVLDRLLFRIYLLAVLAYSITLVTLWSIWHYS
T6 sequence (Q9JJ16 whole entry): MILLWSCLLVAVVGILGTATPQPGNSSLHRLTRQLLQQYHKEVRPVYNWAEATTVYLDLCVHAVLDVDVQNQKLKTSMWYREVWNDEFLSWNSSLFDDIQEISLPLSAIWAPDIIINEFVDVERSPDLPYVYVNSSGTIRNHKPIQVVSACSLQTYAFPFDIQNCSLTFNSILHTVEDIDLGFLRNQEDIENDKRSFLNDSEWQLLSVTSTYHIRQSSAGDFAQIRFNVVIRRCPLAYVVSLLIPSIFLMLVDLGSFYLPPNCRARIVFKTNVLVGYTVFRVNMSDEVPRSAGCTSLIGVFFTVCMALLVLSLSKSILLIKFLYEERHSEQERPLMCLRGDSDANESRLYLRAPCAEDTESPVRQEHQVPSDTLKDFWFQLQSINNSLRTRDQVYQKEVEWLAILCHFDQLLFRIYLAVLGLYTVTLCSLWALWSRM

[11] = biological target: T3, Serotonin 3 (5-HT3) receptor (Rattus norvegicus); experiment: Agonist activity against 2-methyl-5-HT induced bradycardia (von Bezold-Jarisch (B-J) reflex) in anesthetized rats; type: functional
[12] = biological target: T2, 5-hydroxytryptamine receptor 4; experiment: Binding affinity against 5-Hydroxytryptamine 4 receptor
Rattus norvegicus [13] = species on record: Rattus norvegicus; experiment: Tested for maximum response in depolarization of isolated rat vagus nerve measured at dose 10 uM; type: functional

Sequence of Beta-2 adrenergic receptor (P07550 whole entry): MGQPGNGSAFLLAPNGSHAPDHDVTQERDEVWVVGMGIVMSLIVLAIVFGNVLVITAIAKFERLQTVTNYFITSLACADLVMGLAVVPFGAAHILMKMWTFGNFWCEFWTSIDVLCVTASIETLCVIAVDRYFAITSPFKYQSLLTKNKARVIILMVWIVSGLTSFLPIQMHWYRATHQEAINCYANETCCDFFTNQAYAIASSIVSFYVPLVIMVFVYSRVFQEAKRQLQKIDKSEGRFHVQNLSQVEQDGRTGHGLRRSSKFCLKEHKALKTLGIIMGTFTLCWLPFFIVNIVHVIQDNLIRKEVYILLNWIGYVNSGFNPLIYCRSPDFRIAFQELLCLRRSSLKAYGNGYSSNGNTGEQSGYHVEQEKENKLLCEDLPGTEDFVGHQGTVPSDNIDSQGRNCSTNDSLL
Sequence of Muscarinic acetylcholine receptor M3 (P20309 whole entry): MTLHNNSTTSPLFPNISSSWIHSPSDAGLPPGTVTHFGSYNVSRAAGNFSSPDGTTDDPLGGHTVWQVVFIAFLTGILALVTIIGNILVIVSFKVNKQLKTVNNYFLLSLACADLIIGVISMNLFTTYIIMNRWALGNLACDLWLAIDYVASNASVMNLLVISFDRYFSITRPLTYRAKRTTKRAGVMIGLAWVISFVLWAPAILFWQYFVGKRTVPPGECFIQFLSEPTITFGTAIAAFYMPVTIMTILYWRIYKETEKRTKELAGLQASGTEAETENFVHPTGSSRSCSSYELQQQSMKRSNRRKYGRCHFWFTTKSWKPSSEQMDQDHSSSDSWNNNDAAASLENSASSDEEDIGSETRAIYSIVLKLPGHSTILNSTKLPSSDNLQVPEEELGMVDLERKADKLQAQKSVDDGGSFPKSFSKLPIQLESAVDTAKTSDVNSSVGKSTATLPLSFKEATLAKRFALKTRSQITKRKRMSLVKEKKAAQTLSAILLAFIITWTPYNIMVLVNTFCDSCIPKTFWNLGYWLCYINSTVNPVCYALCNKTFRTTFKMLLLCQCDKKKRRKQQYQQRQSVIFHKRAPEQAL
T2 sequence (Q13639 whole entry): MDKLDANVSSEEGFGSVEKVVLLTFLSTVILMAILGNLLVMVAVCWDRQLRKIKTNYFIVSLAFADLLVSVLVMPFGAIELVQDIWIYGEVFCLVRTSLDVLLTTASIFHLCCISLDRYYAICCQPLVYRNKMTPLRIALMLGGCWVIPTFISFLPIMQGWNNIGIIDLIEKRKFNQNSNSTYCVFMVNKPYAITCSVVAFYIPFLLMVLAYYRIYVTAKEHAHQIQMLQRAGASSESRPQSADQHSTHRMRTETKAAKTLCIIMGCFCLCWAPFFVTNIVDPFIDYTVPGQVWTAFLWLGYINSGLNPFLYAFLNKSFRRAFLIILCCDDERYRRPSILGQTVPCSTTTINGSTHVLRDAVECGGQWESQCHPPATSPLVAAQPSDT
Sequence of 5-hydroxytryptamine receptor 1D (P28221 whole entry): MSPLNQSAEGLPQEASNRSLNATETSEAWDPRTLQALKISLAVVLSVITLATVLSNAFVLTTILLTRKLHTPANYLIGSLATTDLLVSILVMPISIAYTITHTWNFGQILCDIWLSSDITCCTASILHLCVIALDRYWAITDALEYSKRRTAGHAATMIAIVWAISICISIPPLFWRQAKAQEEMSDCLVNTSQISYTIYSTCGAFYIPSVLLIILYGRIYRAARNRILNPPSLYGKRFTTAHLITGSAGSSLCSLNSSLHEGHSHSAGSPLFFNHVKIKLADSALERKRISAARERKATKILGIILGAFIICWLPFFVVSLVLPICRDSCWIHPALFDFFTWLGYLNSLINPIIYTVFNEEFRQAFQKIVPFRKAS
Sequence of D(1A) dopamine receptor (P21728 whole entry): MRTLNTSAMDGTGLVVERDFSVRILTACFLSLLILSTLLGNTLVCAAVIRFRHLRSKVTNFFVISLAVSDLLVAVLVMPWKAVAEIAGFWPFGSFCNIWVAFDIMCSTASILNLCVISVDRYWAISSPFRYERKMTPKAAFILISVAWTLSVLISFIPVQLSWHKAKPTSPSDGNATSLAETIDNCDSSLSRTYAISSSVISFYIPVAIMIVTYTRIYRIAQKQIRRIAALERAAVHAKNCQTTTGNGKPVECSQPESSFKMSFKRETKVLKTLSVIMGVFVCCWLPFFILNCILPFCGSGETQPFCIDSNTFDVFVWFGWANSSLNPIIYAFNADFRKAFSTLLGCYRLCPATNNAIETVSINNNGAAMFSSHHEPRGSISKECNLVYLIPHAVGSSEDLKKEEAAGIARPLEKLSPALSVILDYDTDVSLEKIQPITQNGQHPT

Row | Compound | Ki [1] [µM] | Max response (Rattus norvegicus [2]) [uV] | Ki [3] [µM] | Ki [4] [µM] | Ki [5] [µM] | Control [6] [%] | Ki [7] [µM] | Ki (D(1A) dopamine receptor) [µM] | Ki [8] [µM] | Ki [9] [µM] | Ki [10] [µM] | ED50 [11] [µg/kg] | Ki [12] [µM] | Max response (Rattus norvegicus [13]) [uV]
1 | Cn1cc(C(=O)C(=O)N[C@H]2CN3CCC2CC3)c2ccccc21 | > 10 | 140 | > 10 | 39.8 | 0.251 | 24 | 50.1 | > 100 | 50.1 | 25.1 | 0.000251 | 0.6 |  | 
2 | Cn1cc(C(=O)C(=O)N[C@@H]2CN3CCC2CC3)c2ccccc21 | > 100 |  | 15.8 | > 100 |  | 33 | 50.1 | > 100 | 31.6 |  | 0.0126 | 8.5 | 0.398 | 167
